Test results published in patent US20220031607A1, “INJECTION COMPOSITION CONTAINING FAB I INHIBITOR, AND PREPARATION METHOD THEREFOR” (CRYSTALGENOMICS, INC., priority 2019, published 2022).

Columns and labels:
[1] = Evaluation of water solubility according to pH; format: physicochemical; conditions: thermodynamic from solid
Protocol: Experimental Example 1-1: […] After completion of the stirring, insoluble substances that may remain were removed by first centrifugation and second filtration with 0.22 μm filter. The substances were diluted with organic solvent methanol and analyzed by HPLC for […] of the solubility. […] As the pH increases, the solubility tends to decrease rapidly.

[2] = Solubility in excipients and solvents by HPLC analysis; format: physicochemical; conditions: for solubility at 1 h: thermodynamic from solid
Protocol: The excipients approved as pharmaceutical additives and solvents that can be used for future process studies were selected as shown in Table 1. A small amount of the compound of formula 1 was added and dissolved. The addition operation was repeated until completely dissolved. Finally, it was stirred at room temperature for one hour and then filtered to determine the concentration of the compound of formula 1 dissolved in the filtrate through HPLC analysis.
20 μL of each the test solution and the standard solution were tested according to a liquid chromatography method (HPLC) of general test methods of the Korean Pharmacopoeia under the following conditions, and the peak area of the main component of each solution was measured.
Operating Condition and Calculation
Detector: UV spectrophotometer (measurement wavelength 286 nm)
Column: Aegispak C18-L (4.6 mm×250 mm, 5 μm) column
Column temperature: 25° C.
Mobile phase: Acetonitrile:water=3:2

[3] = Evaluation of excipient suitability (related substances on storage at 60° C.); format: physicochemical; set-up: Total related substances, Initial value: unit not given here; conditions: for Total related substances, Severe (1 week): 60° C.
Protocol: The resulting product was stored at 60° C. and the stability of the compound of formula 1 was measured. The measurement of related substances was evaluated according to the guidelines for the evaluation of related substances of the Ministry of Food and Drug Safety, and the results are shown in Table 2.

[4] = Stability after dilution of prepared freeze-dried powder in physiological saline; format: physicochemical; conditions: 16% HP-beta-cyclodextrin solution, 60 °C, aqueous with cosolvent or surfactant or cyclodextrin, thermodynamic from solid; in 16% HP-beta-cyclodextrin; read-out: highest solubility
Protocol: Hydroxypropyl beta-cyclodextrin (HP-beta-cyclodextrin) was dissolved in distilled water for injection under stirring at room temperature and heated to 60° C., and the compound of formula 1 was added thereto, stirred and enclosed therein. The liquid injection was sterilized and filtered through 0.22 μm filter paper. The filtered injection solution was filled into a glass vial, cooled at −80° C., and freeze-dried to commercialize.

[5] = tested on: Methicillin-susceptible Staphylococcus aureus strains; assay: Drug susceptibility (MIC) of methicillin-susceptible clinical isolates; format: cell-based; conditions: Methicillin-susceptible, n = 103
Protocol: (§1) In order to verify the inhibitory effect of the compound of formula 1 on antibiotic-resistant strains, drug susceptibility was evaluated by treating the compound of formula 1 with Staphylococcus aureus phenotype isolated from each patient. In an in vitro test for antibiotic development, the most important result can be MIC90 (minimum inhibitory concentration required to inhibit the growth of 90% of the total bacterial population). […] Appelbaum at Hershey Hospital who is recognized for its authority in the field of anti-infection worldwide.

[6] = tested on: Methicillin-resistant Staphylococcus aureus (MRSA) strains; assay: Drug susceptibility (MIC) of MRSA clinical isolates; format: cell-based; conditions: Methicillin-resistant, n = 100
Protocol: as §1

[7] = tested on: Staphylococcus aureus ATCC 29213 (MSSA, standard strain); assay: Susceptibility test (MIC), standard strain; format: cell-based; conditions: Staphylococcus aureus ATCC 29213; read-out: MIC
Protocol: (§2) For the compound of formula 1, pharmacokinetic/pharmacodynamic experiments were conducted using a mouse infection model. To this end, experiments were conducted with Staphylococcus aureus ATCC 29213 (MSSA, standard strain) and 13B-382 (MRSA, clinical strain). As a medium, Mueller-Hinton broth or Cation-adjusted Mueller-Hinton broth was used. For the susceptibility test (minimum inhibitory concentration (MIC)), the compound of formula 1 was used.

[8] = tested on: Staphylococcus aureus 13B-382 (MRSA, clinical strain); assay: Susceptibility test (MIC), clinical strain; format: cell-based; conditions: Staphylococcus aureus 13B-382, read-out: MIC
Protocol: as §2

[9] = mixed with Beta-Hydroxypropyl cyclodextrin

## Cc1c(N)cccc1Cn1ccc(OCCc2cccs2)cc1=O [Compound of formula 1, 1-(3-amino-2-methylbenzyl)-4-(2-thiophen-2-yl-ethoxy)-1H-pyridin-2-one]
[1]; aqueous buffer, aqueous solution pH 3, room temperature
  solubility at 2 h: 6 µg/mL
[1]; aqueous buffer, aqueous solution pH 7, room temperature
  solubility at 2 h: 2.5 µg/mL
[1]; aqueous solutions, aqueous buffer, pH 4 to 8
  solubility at 2 h: 2 to 5 µg/mL
[1]; simulated gastric fluid, aqueous solution pH 1.2, room temperature
  solubility at 2 h: ~1000 µg/mL
[2]; Capryol 90, oil or lipid, in Capryol 90
  solubility at 1 h: 2900 µg/mL
[2]; DMSO, organic solvent or mixture, in DMSO
  solubility at 1 h: 180000 µg/mL
[2]; Labrasol, aqueous with cosolvent or surfactant or cyclodextrin, in Labrasol
  solubility at 1 h: > 20000 µg/mL
[2]; PEG 300, organic solvent or mixture, in PEG 300
  solubility at 1 h: > 20000 µg/mL
[2]; Peceol, oil or lipid, in Peceol
  solubility at 1 h: 4400 µg/mL
[2]; Solutol HS 15, aqueous with cosolvent or surfactant or cyclodextrin, in Solutol HS 15
  solubility at 1 h: ≥ 10000 µg/mL
[2]; Tween 20, aqueous with cosolvent or surfactant or cyclodextrin, in Tween 20
  solubility at 1 h: > 20000 µg/mL
[2]; Tween 80, aqueous with cosolvent or surfactant or cyclodextrin, in Tween 80
  solubility at 1 h: ≥ 10000 µg/mL
[2]; glycerol, organic solvent or mixture, in Glycerol
  solubility at 1 h: 260 µg/mL
[2]; in Ethanol
  Solubility: 3650 µg/mL
[2]; in Methanol
  Solubility: 6140 µg/mL
[2]; in Propylene glycol
  Solubility: 3800 µg/mL
[2]; methyl chloride, organic solvent or mixture, in Methyl chloride
  solubility at 1 h: ~60000 µg/mL
[2]; oleic acid, oil or lipid, in Oleic acid
  solubility at 1 h: 2000 µg/mL
[2]; pH 2.0 solution, pH 2, simulated gastric fluid, in pH 2.0
  solubility at 1 h: 440 µg/mL
[2]; soybean oil, oil or lipid, in Soybean Oil
  solubility at 1 h: ~8500 µg/mL
[3]; Compound of formula 1 alone
  Total related substances, Initial value: 0.5
  Total related substances, Severe (1 week): 0.5
[3]; [9]
  Total related substances, Initial value: 0.5
  Total related substances, Severe (1 week): 0.6
[3]; mixed with Cremophor 40
  Total related substances, Initial value: 1.6
  Total related substances, Severe (1 week): 3.4
[3]; mixed with Glycerin
  Total related substances, Initial value: 1.4
  Total related substances, Severe (1 week): 1.1
[3]; mixed with Labrasol
  Total related substances, Initial value: 6.2
[3]; mixed with Oleic acid
  Total related substances, Initial value: 6.2
[3]; mixed with Olive oil
  Total related substances, Initial value: 1.1
  Total related substances, Severe (1 week): 0.7
[3]; mixed with PEG
  Total related substances, Initial value: 1.1
  Total related substances, Severe (1 week): 7
[3]; mixed with PEG 400
  Total related substances, Initial value: 6.4
  Total related substances, Severe (1 week): 9.8
[3]; mixed with PEG 20,000
  Total related substances, Initial value: 4.2
  Total related substances, Severe (1 week): 1
[3]; mixed with PVA
  Total related substances, Initial value: 0.9
  Total related substances, Severe (1 week): 0.6
[3]; mixed with PVA 2,000
  Total related substances, Initial value: 0.9
  Total related substances, Severe (1 week): 0.6
[3]; mixed with Poloxamer 407
  Total related substances, Initial value: 0.9
  Total related substances, Severe (1 week): 0.5
[3]; mixed with Propylene glycol
  Total related substances, Initial value: 1
  Total related substances, Severe (1 week): 5
[3]; mixed with Solutol HS 15
  Total related substances, Initial value: 0.7
  Total related substances, Severe (1 week): 3.8
[3]; mixed with Soybean Oil
  Total related substances, Initial value: 1.1
  Total related substances, Severe (1 week): 1.4
[3]; mixed with Transcutol HP
  Total related substances, Initial value: 1.9
  Total related substances, Severe (1 week): 9.1
[3]; mixed with Tween 80
  Total related substances, Initial value: 1.2
  Total related substances, Severe (1 week): 2.6
[3]; with soybean oil, olive oil, Tween 80, PEG 20000, PVA, PVA 2000, poloxamer 407, beta-hydroxypropyl cyclodextrin, glycerin
  Stability with excipients: relatively stable
[4]
  Solubility: 3000 µg/mL
[5]
  MIC Range: 0.06 to 1.0 µg/mL
[5]; Staphylococcus aureus, read-out: MIC50
  MIC50: 0.25 µg/mL
[5]; Staphylococcus aureus, read-out: MIC90
  MIC90: 0.25 µg/mL
[6]
  MIC Range: 0.06 to 1.0 µg/mL
[6]; Staphylococcus aureus, MRSA, read-out: MIC50
  MIC50: 0.25 µg/mL
[6]; Staphylococcus aureus, MRSA, read-out: MIC90
  MIC90: 0.25 µg/mL
[7]
  MIC: 0.25 µg/mL
[8]
  MIC: 0.25 µg/mL
